Test results taken from US11529350B2, “Tyrosine kinase non-receptor 1 (TNK1) inhibitors and uses thereof” (Sumitomo Pharma Oncology, Inc., priority 2019, dated 2022).

Legend:
A549 cells = experiment: Combination with bortezomib, A549 cell confluency (Incucyte); format: cell-based; conditions: Example No. 13 10 nM + Bortezomib 1 nM, over 200 hours
Protocol: A549 cells were seeded in log phase (e.g., at 40-60% confluency) in a well plate. Drug treatments were: no drug treatment, DMSO, bortezomib at 50 nM, 10 nM, 5 nM, 2 nM or 1 nM, Example No. 13 at 10 nM, and bortezomib 50 nM, 10 nM, 5 nM, 2 nM or 1 nM combined with Example No. 13 at 10 nM. The DMSO concentrations were kept constant (including DMSO control) to control for any confounding DMSO toxicity.
Drug addition protocol: On day 1, cells were seeded at 60,000 cells/well, and incubated for 24 hours to allow adherence. On day 2, media was aspirated and replaced with 500 μl of the drug media preparations described below in correlating wells. The plates were placed in Incucyte for 7-14 days, and cell confluency was measured every 2 hours. […]

L540 xenografts = experiment: In vivo efficacy study in subcutaneous L540 Hodgkin's lymphoma CDX model; conditions: for tumor growth inhibition: oral gavage daily for 21 days
Protocol: An efficacy study was performed using Example No. 13 in a L540 CDX mouse model. Animals were NOD-SCID (#394) female mice 6-8 weeks of age from Charles River Laboratories (CRL). Example No. 13 was formulated weekly using Tween 80:Ethanol:PEG400:Water (2:10:30:58 v/v) as a vehicle. There were four treatment groups (n=10, 40 animals in total): a vehicle/control group, a group treated with 10 mg/kg Example No. 13, a group treated with 25 mg/kg Example No. 13 and a group treated with 50 mg/kg Example No. 13. When the average tumor volume reached 80-120 mm^3, animals were randomized and dosed daily for 21 days via oral gavage, 10 ml/kg dose volume. […] No tissues were collected. IDEXX pathogen test was performed prior to the cell culture; Corynebacterium bovis, Corynebacterium sp. (HAC2), EBV, HCMV, Hepatitis B, Hepatitis C, HIV1, HIV2, HPV16, HPV18, HTLV1, HTLV2, LDEV, and Mycoplasma sp. were tested, and all results were negative. Tumor volume measurements are provided as mean absolute tumor volume +/−SEM.

[1] = system: TNK1 and STAT5 phosphorylation in L540 tumor tissue; experiment: In vivo single dose PD study, L540 xenograft, Western blot; design: species or system mouse; conditions: L540 tumor samples, 50 mg/kg
Protocol: The objective of this study was to assess in vivo pharmacodynamic activity of Example No. 13 in a subcutaneous xenograft model of Hodgkin's lymphoma in female NOD SCID mice, aged 6-8 weeks. There were 4 groups (and a total of 84 mice): Example No. 13 at 50 mg/kg, 25 mg/kg, or 10 mg/kg (n=27 mice for each dose), and vehicle (n=3 mice). When the average tumor volume reached 300 mm^3, animals were randomized and dosed once p.o. at a 10 mL/kg dose volume. Blood and tumors were collected at nine different time points.
Example No. 13 was formulated in Tween 80 (0.2 mL), ethanol (1 mL), PEG400 (3 mL), and water (5.8 mL).
In this study, protein expression was analyzed by Western blotting method. Tissue samples were acquired as part of a single dose PK/PD study. Equal amounts of tumor were placed into a bead tube, lysis buffer (RIPA buffer (Sigma No. 0278), Halt CocktaiL (ThermoFisher No. 78440), EDTA (ThermoFisher No. 1861274), PhosSTOP (Sigma No. 04906845001), cOmplete (Sigma No. 11697498001) and Inhibitor Cocktail 3 (Sigma No. P0044-1ML)) was added, and samples were homogenized using bead homogenizer (2×20 s at 4.5 m/s (Fisherbrand Bead Mill 24 Homogenizer, Fisher Scientific)). […]
Protein concentration was determined using BCA kit (Invitrogen No. 23225). Equal amounts of protein were pooled from each treatment group, and concentration was measured again in the pooled samples. […]

COc1cc(N2CCN(C)CC2)c(Cl)cc1Nc1ncc(Cl)c(Nc2cccnc2N2CCCC2=O)n1 [Example No. 13, 1-(3-((5-chloro-2-((5-chloro-2-methoxy-4-(4-methylpiperazin-1-yl)phenyl)amino)pyrimidin-4-yl)amino)pyridin-2-yl)pyrrolidin-2-one]
cell growth inhibition, combination (A549 cells): approximately 50% | tumor growth inhibition (L540 xenografts; 10 mg/kg, at Day 21): 35.17% | tumor growth inhibition (L540 xenografts; 25 mg/kg, at Day 31): 74.20% | body weight loss (L540 xenografts; 50 mg/kg): moderate | animals found dead on Day 7, possibly due to drug toxicity (L540 xenografts; 50 mg/kg group (n=10)): Two | tumor growth inhibition (L540 xenografts; 50 mg/kg, at Day 31): 86.5% | continued tumor growth inhibition post-dosing (L540 xenografts; 25 and 50 mg/kg, dosing stopped on day 21): up to 10 days | earliest time at which inhibition of STAT5 phosphorylation was observed after dosing [1]: 15 to 30 min
